Experimental data taken from publication PMC5442318, “Hundreds of dual-stage antimalarial molecules discovered by a functional gametocyte screen” (Nature Communications, 2017).
Read-outs that look alike come from different tables or passages of the source.

Legend:
[1] = system: P. falciparum stages IV–V gametocytes; test: Gametocytocidal ATP-depletion assay (gametocyte ATP bioluminescence); format: cell-based, Plasmodium falciparum; conditions: for inhibition at 2 µM: Plasmodium falciparum, mean
Outline: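 Read-out is luciferase luminescence of parasite ATP (BacTiter-Glo), standing in for viability. Double-purified mature stage IV–V gametocytes, 12,500 per well, were exposed 48 h at 37 °C in low-O2 gas; screening concentration 2 μM.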

[2] = system: P. falciparum female gametes; test: Pf FGAA with compounds added 30 min after triggering gametocyte activation (gamete-targeting); format: cell-based, Plasmodium falciparum NF54; conditions: 0h incubation time
[3] = system: P. falciparum stage V female gametocytes; test: P. falciparum female gametocyte activation assay (Pf FGAA), 24 h or 48 h preincubation, Pfs25 expression readout; format: cell-based, Plasmodium falciparum NF54; conditions: for Pf FGAA classification: SLOW / FAST / GAMETE from activity at 48h, 24h, 0h incubation
Outline: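 Female activation, triggered by xanthurenic acid and cooling, was scored by imaging Cy3-labelled anti-Pfs25 female gametes after 24 h at 26 °C. Beforehand, purified NF54 stage V gametocytes had been incubated with compound for either 24 h or 48 h (37 °C, 3% O2). Values are pIC50 from full-curve regression.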

HepG2 cells = test: HepG2 cytotoxicity assay; format: cell-based; conditions: for Selectivity ratio: HepG2 TOX50 versus Pf FGAA IC50
Outline: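 Once incubation ended, the HepG2 plates were warmed to room temperature for 30 min alongside the CellTiter-Glo reagent. Luminescent signal was developed by reagent addition and stabilized for 10 min before plate reading.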

[4] = system: P. falciparum asexual blood stages; conditions: cited from earlier work; for IC50: read-out: Pf Asexual blood stages XC50
[5] = system: Plasmodium berghei asexual blood stages; test: In vivo antimalarial therapeutic efficacy, P. berghei murine model; design: species or system CD1 mice
Experimental: Two out of the six compounds progressed to SMFA, TCMDC-123767 (cluster 30) and TCMDC-141154 (cluster 4), were evaluated in vivo in the Plasmodium berghei murine model. Selection criteria was based on the compound potencies in both asexual stages and gametocytes in the Pf FGAA, as well as on their transmission-blocking activity observed in the SMFA (Table 1). Owing to compound availability, TCMDC-141154 had to be replaced by a close analogue from cluster 4: TCMDC-140549 (Supplementary Data 3). Compounds were tested at 50 mg kg^−1 single dose 2-day oral treatment and efficacy was measured as a reduction of asexual blood stages parasitaemia greater than 40% compared with the vehicle-treated mice.
Pathogen-free CD1 mice (Hsd:ICR) were obtained from Harlan Interfauna Iberica (Barcelona, Spain). Eight weeks old female CD-1 mice were infected intravenously with 10^7 infected erythrocytes (day 0). Dosing solutions were prepared in water containing 5% DMSO/20% Captisol, at a target dose of 50 mg kg^−1. Mice received two oral doses once a day according to their body weight (20 ml kg^−1) starting at day 2 after infection. Control mice received the same treatment schedule with the vehicle used for the compound preparation. Samples from mice peripheral blood were taken before starting treatment and 24 h after finishing the dosing, to measure parasitaemia by flow cytometry, using the YOYO-1 staining, to assess the reduction of parasitaemia compared with the vehicle-treated mice.

[6] = Artificial membrane permeability assay (AMPA); format: in vitro ADME; conditions: 10 μM, pH 7.05, 3 h
Experimental: It is a 96-well plate-based assay that measures the speed of permeation of a compound (at 10 μM concentration) through a phospholipid membrane, consisting in 1.8% egg L-a-phosphatidylcholine (830051, Avanti Polar Lipids) and 1% cholesterol (C8667, Sigma) dissolved in n-decane (D0011, TCI American). Phosphate buffer (50 mM Na2HPO4 with 0.5% 2-hydroxypropyl-b-cyclodextrin), pH 7.05, is added to the top and bottom of the plate (S5EJ046I08, MilliPore Corp.). The lipids are allowed to form bilayers across the small holes in the filter and compound concentration is measured 3 h later in both donor and the acceptor compartments by HPLC (Agilent 1100 LC). Permeability (P) (nm s^−1) is calculated using the following formulas:
where X=VD/VR; CR and CD are final concentrations in receiver and donor side, respectively; VR and VD are volumes in receiver and donor compartment, respectively; A is the area (cm^2) and t is the incubation time (s). The considered cut-off values are as follows: High: P>200 nm s^−1; Medium: 10 nm s^−1<P<200 nm s^−1; Low: P<10 nm s^−1.

[7] = 24h incubation time, read-out: Pf FGAA IC50 (µM) 24h
[8] = mean, read-out: Gametocytes mean Pf FGAA IC50
[9] = TCAMS data, ref 1 (Gamo et al., 2010)
[10] = TCAMS data, ref 1 (Gamo, F. J. et al., Nature 465, 305-310, 2010)
[11] = mean, P. falciparum female gametocyte activation assay, read-out: Gametocytes mean Pf FGAA IC50
[12] = TCAMS asexual blood stage data, ref 1 (Gamo, F. J. et al., Nature 465, 305-310, 2010)
[13] = Plasmodium falciparum, 24h incubation time, read-out: Pf FGAA IC50 (µM) 24h
[14] = Plasmodium falciparum, P. falciparum female gametocytes, mean, read-out: Gametocytes mean Pf FGAA IC50
[15] = P. falciparum female gametocytes, mean, read-out: Gametocytes mean Pf FGAA IC50

Row | IC50 [3, 8] [µM] | Compound | Gametocytes mean ATP inhibition at 2µM (%) [1] [%] | IC50 [2] [µM] | IC50 [3, 7] [µM] | Pf FGAA classification [3] | HepG2 cells mean TOX50 (HepG2 cells; mean) [µM] | IC50 [4, 9] [µM] | Pf Asexual stages XC50 [4, 10] [µM] | Gametocytes mean ATP inhibition at 2µM [1] [%] | IC50 [4, 12] [µM] | HepG2 cells mean TOX50 (HepG2 cells; HepG2 cells, mean) [µM] | further results
1 | 1.38 | O=C(Nc1ccc(-c2ccccc2)c(OCCN2CCNCC2)c1)c1ccc(-c2ccc(Cl)cc2)cc1 [TCMDC-138818] | 1.63 | > 20 | 1.75 | FAST | 4.95 | 0.78 | 0.84 |  |  |  | 
2 |  | O=C(CCC1CCCC1)N(Cc1ccc(-c2ccc(CNCCc3ccccc3)cc2)cc1)C1CCCNC1.O=C(O)C(F)(F)F (centres unmarked) [TCMDC-141444] |  | 15.3 | 6.85 | SLOW |  |  | 1.22 | 26.17 | 1.22 |  | IC50 [3, 11]: 1.98 µM; HepG2 cells mean TOX50 (HepG2 cells; mean, HepG2 cells): 5.19 µM
3 | 1.58 | COc1cc2nc(Nc3ccc4c(ccn4Cc4ccccc4)c3)nc(Nc3ccc4c(ccn4Cc4ccccc4)c3)c2cc1OC [TCMDC-138237] | 12.64 | > 20 | 5.44 | SLOW | 14.13 | 0.65 | 0.65 |  |  |  | 
4 | 1.54 | Cc1noc(C)c1-c1ccc2c(Nc3nccc4ccccc34)c(C(N)=O)cnc2c1 [TCMDC-136456] | 0.55 | > 20 | 3.33 | SLOW | 3.85 | 0.89 | 0.89 |  |  |  | 
5 |  | N#Cc1c(F)cc(N2CCC(NCC[C@H](N)Cc3ccc(F)c(F)c3)CC2)cc1F [TCMDC-132121] |  |  |  | SLOW |  |  | 0.86 |  | 0.86 |  | inhibition at 2 µM [1]: 7.46%; IC50 ([2]; Plasmodium falciparum): 7.08 µM; IC50 [3, 13]: 7.16 µM; IC50 [3, 14]: 0.73 µM; Selectivity ratio (HepG2 cells): 6.30; HepG2 cells mean TOX50 (HepG2 cells; human, 48 h): 4.58 µM
6 |  | COc1ccc(NC(=O)Nc2ccc(Nc3nc(C)cc(N4CCCC4)n3)cc2)cc1 [TCMDC-124958] |  |  |  | FAST |  |  | 0.14 |  | 0.14 | 11.89 | inhibition at 2 µM [1]: -9.01%; IC50 ([2]; Plasmodium falciparum): 10.1 µM; IC50 [3, 13]: 2.16 µM; IC50 [3, 14]: 1.08 µM; Selectivity ratio (HepG2 cells): 11.05
7 |  | CC(C)(CNC(=O)[C@@H]1CCCCN1)c1nc(-c2ccc(Cl)c(O)c2)c(-c2ccncc2)[nH]1.Cl [TCMDC-141079] |  | 2.06 | 2.48 | GAMETE |  |  | 0.84 | -6.33 | 0.84 |  | IC50 [3, 11]: 1.58 µM; HepG2 cells mean TOX50 (HepG2 cells; mean, HepG2 cells): 38.91 µM
8 |  | O=C(O)C(F)(F)F.O=S(=O)(NCCN1CCCC1)c1ccc(-c2cccc(CNC3Cc4ccccc4C3)c2)s1 [TCMDC-132217] |  | > 20 | 5.37 | SLOW |  |  | 0.75 | 18.03 | 0.75 | 5.50 | IC50 [3, 15]: 1.29 µM
9 |  | CN(C)c1ccc(-c2csc(C(=O)NCC3CCN(Cc4cccc(C(F)(F)F)c4)C3)c2)cc1.O=C(O)C(F)(F)F (centres unmarked) [TCMDC-134486] |  | > 20 | 2.56 | SLOW |  |  | 0.84 | -14.11 | 0.84 | 8.18 | IC50 [3, 15]: 1.56 µM
10 | 1.01 | CC(C)(C)CNCC(C)(C)c1nc(-c2ccc(Cl)c(O)c2)c(-c2ccncc2)[nH]1.Cl [TCMDC-140549] | -11.46 | 0.51 | 3.56 | GAMETE | 11.63 | 0.6 | 0.60 |  |  |  | reduction of asexual blood stages parasitaemia (threshold 40% vs vehicle) ([5]; 50 mg kg^−1 single dose 2-day oral treatment, mice): not reduced above the threshold; ED50 ([5]; single dose 2-day treatment, oral, P. berghei mice): > 50 mg/kg; permeability through artificial membranes [6]: 170 nm/s
11 |  | O=C(Nc1ccc([N+](=O)[O-])cc1)Nc1cc(OCC(F)(F)F)cc(OCC(F)(F)F)c1 [TCMDC-124533] |  |  |  | SLOW |  |  | 0.47 |  | 0.47 | 6.24 | inhibition at 2 µM [1]: -45.2%; IC50 ([2]; Plasmodium falciparum): 5.64 µM; IC50 [3, 13]: 2.32 µM; IC50 [3, 14]: 1.16 µM; Selectivity ratio (HepG2 cells): 5.40

Row | Compound | IC50 [3, 8] [µM] | Gametocytes mean ATP inhibition at 2µM (%) [1] [%] | IC50 [2] [µM] | IC50 [3, 7] [µM] | Pf FGAA classification [3] | HepG2 cells mean TOX50 (HepG2 cells; mean) [µM] | IC50 [4, 9] [µM] | Pf Asexual stages XC50 [4, 10] [µM] | Gametocytes mean ATP inhibition at 2µM [1] [%] | IC50 [4, 12] [µM] | HepG2 cells mean TOX50 (HepG2 cells; HepG2 cells, mean) [µM] | further results
12 | Cc1cc(C(F)(F)F)cc(-n2ncc(-c3ccc(C(=O)NCc4ccccc4N)cc3)c2N)n1.O=C(O)C(F)(F)F [TCMDC-136658] | 1.46 | -1.42 | > 20 | 12.5 | SLOW | 26.82 | 0.45 | 0.45 |  |  |  | 
13 | CC(C)(C)c1ccc(CNCCOc2ccc(Nc3nnc(-c4ccc(-c5ncc[nH]5)cc4)o3)c3ccccc23)cc1.O=C(O)C(F)(F)F [TCMDC-138667] | 0.62 | -11.45 | 13.2 | 3.03 | SLOW | 5.96 | 0.14 | 0.14 |  |  |  | 
